Results on eleven compounds are retold here after PubChem BioAssay (NCI).

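Interpolation was linear, between the two tested concentrations surrounding the appropriate level; five concentrations were tested over 48 hours in 96-well plates. Abbreviation: GI50, concentration required for 50% inhibition of growth. TGI marks complete inhibition of growth.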

What all share (assay): growth of human tumour cells (NCI), 48 h
For experiment [1], the system named is A549 NSCLC.
Experiment [2] relates to HCT-116 colon.
Experiment [3] has as its system MALME-3M melanoma.
In experiment [4] the test system is MOLT-4 leukemia.
Experiment [5] deals with OVCAR-5 ovarian.
For experiment [6], the system named is SNB-75 CNS.
Experiment [7] concerns SW-620 colon.
Experiment [8] relates to TK-10 renal.
Experiment [9] concerns UACC-62 melanoma.
Experiment [10] relates to EKVX NSCLC.

Take `CCCCNC(=O)NS(=O)(=O)c1ccc(N2N=C(c3ccc(C)cc3C)CC2c2ccc(N(C)C)cc2)cc1` (centres undefined): the GI50 in experiment [1] was 3.2 µM; in experiment [2], 3.86 µM; in [3], 3.08 µM; in [4] it was 3.61 µM; in [5], 5.24 µM; in [6], 3.81 µM. The GI50 is 4.14 µM in experiment [7], 5.64 µM in [8] and 2.18 µM in experiment [9]. The TGI is > 100 µM in experiment [1]; > 100 µM in [2]; 41.7 µM in [3]; > 100 µM in experiment [4]; 96.1 µM in experiment [5]; > 100 µM in [6]. Besides, the TGI is > 100 µM in [7], > 100 µM in experiment [8] and 6.12 µM in [9].
As to `Nc1c(-c2ccc(Br)cc2)[n+]([O-])c2ccccc2[n+]1[O-]`, the TGI in experiment [1], in experiment [10], in [2], in experiment [3], in [4] and in experiment [5] was > 100 µM each time. Also, the TGI in experiment [6] and in experiment [7] was > 100 µM throughout.
Take `COc1ccc(S(=O)(=O)N(Cc2ccc3c(n2)C=CC(C)(C)O3)C2CCC2)cc1OC`: the GI50 in experiment [1] is 0.0233 µM; in experiment [2], < 0.01 µM; in experiment [3], < 0.01 µM; in [4] it was < 0.01 µM; in experiment [5], < 0.01 µM; in experiment [6], < 0.01 µM. For the same compound, the GI50 in experiment [7], in experiment [8] and in [9] was < 0.01 µM each time. In addition, the TGI in [1] is 1.66 µM; in experiment [2], 4.05 µM; in [3], 0.0209 µM; in experiment [4] it was 0.0355 µM; in [5], 7.25 µM; in [6] it was 0.238 µM. In addition, the results for the TGI in experiment [7], in experiment [8] and in experiment [9] were > 35.1 µM, 1.59 µM and 0.05 µM, respectively.
On to `CC(C)CC(N)C(=O)O` (centres undefined), for which the TGI in [1], in experiment [2], in experiment [3], in experiment [4], in experiment [6] and in experiment [7] was > 100 µM each time. The TGI in experiment [8] and in experiment [9] was > 100 µM each time.
As for `C#CC[C@]12CC(=O)CC[C@H]1CC(=O)C2`, the TGI in [1], in experiment [2], in experiment [3], in experiment [4], in experiment [6] and in experiment [7] was > 100 µM throughout. The TGI in [8] and in experiment [9] was > 100 µM throughout.
As for `CCCCC/C=C/C/C=C/CCCCCCCC1=NC(C)(C)CN1C(C)C`, the GI50 in experiment [1] is 1.77 µM; in experiment [10] it was 1.3 µM; in experiment [5] it was 1.87 µM; in experiment [6], 1.44 µM; in experiment [7], 1.6 µM; in [8], 1.67 µM. Further, the GI50 in experiment [9] was 1.69 µM. Also, the TGI in [1] amounted to 3.2 µM; in experiment [10] it was 2.73 µM; in experiment [5], 4.1 µM; in experiment [6], 2.87 µM; in experiment [7], 2.99 µM; in experiment [8] it was 3.04 µM. In experiment [9], the TGI came out at 3.12 µM.
With `CCCCn1c(-c2ccc(C(=O)O/N=C(\N)c3ccc(OC)cc3)cc2)nc(-c2ccccc2)c1-c1ccccc1`, the GI50 in experiment [1] is 1.21 µM; in [5], 2.35 µM; in experiment [6], 1.36 µM; in [8] it was 1.76 µM; in experiment [9] it was 1.88 µM. Besides, the TGI in [1] was 3.75 µM; in [5], > 100 µM; in [6] it was 3.05 µM; in [8], 3.38 µM; in experiment [9] it was 4.58 µM.
Take `N#CCCN(c1ccc(/C=C2\N=C(c3ccc(Cl)cc3)OC2=O)cc1)S(=O)(=O)c1ccccc1`: the TGI in [1], in experiment [10], in experiment [2], in [4], in experiment [5] and in experiment [6] was > 100 µM throughout. Besides, the TGI in experiment [7], in [8] and in experiment [9] was > 100 µM in each case.
In the case of `COc1cc2c3c(n(CCCCl)c(=O)c2cc1OC)-c1ccccc1C3=O`, the GI50 in [1] was > 100 µM; in experiment [10] it was > 100 µM; in experiment [2], 2.46 µM; in experiment [4] it was 2.18 µM; in experiment [8] it was 19.6 µM; in experiment [9] it was 12.4 µM. Further, the TGI in [1] was > 100 µM; in experiment [10] it was > 100 µM; in experiment [2], > 100 µM; in experiment [4], 96.6 µM; in [8], 68.6 µM; in experiment [9], 54.9 µM.
On to `Cc1cc(C)cc(Nc2cc(C)nc3nc(C(F)(F)F)nn23)c1`, for which the GI50 in experiment [2] was 85 µM; in [3] it was > 100 µM; in [4], > 100 µM; in [5] it was > 100 µM; in experiment [6], 25.2 µM; in [7] it was > 100 µM. The GI50 in [8] and in experiment [9] was > 100 µM throughout. Moreover, the TGI in experiment [2], in [3], in [4], in [5], in [6] and in experiment [7] was > 100 µM throughout. Further, the TGI in experiment [8] and in experiment [9] was > 100 µM in each case.
Consider `COc1cccc(N=Cc2c3ccccc3c(=O)n3c2oc2ccccc23)c1`, for which the GI50 in [1] is 4.84 µM; in [10], 17.3 µM; in experiment [2] it was 5.62 µM; in [4] it was 2.66 µM; in experiment [5] it was 27.1 µM; in experiment [6], 54.8 µM. Moreover, the figures for the GI50 in experiment [7], in experiment [8] and in experiment [9] were 38 µM, 2.95 µM and 2.58 µM, respectively. Moreover, the TGI in [1] is 23.7 µM; in [10], > 100 µM; in experiment [2] it was > 100 µM; in experiment [4], 6 µM; in experiment [5], 87.4 µM; in experiment [6], > 100 µM. The TGI in [7] is > 100 µM; in experiment [8], 7.69 µM; in experiment [9] it was 12.9 µM.
